The values below come from patent publication US11402367B2, “Integrated multi-electrode array and trans-endothelial electrical resistance in organ-on-a-chip microsystems” (President and Fellows of Harvard College, priority 2017, dated 2022).

The test system of experiment [1] is endothelial layer (HUVECs). Kind of experiment: TEER and capacitance measurement of the endothelial layer in the MEA-TEER Heart-on-Chip. The experiment is classed as cell-based, human. As to conditions: for effect on TEER values / endothelial barrier: TNF-α 2 μg/mL overnight, isoproterenol 50 nM, 30 minutes, FIG. 5A, 5B. The procedure:
The MEA-TEER chips are surface-treated with an oxygen plasma (Atto, Diener electronic GmbH, Germany at O2, 15 standard cubic centimeters per minute (“sccm”), 100 Watts, 30 seconds) to create hydrophilic, sterile, flow systems. Both apical and basal channels 116, 117, 216, 217 are coated overnight with human fibronectin (Sigma at 100 micrograms (“μg”/mL in PBS with Mg^2+ and Ca^2+ at 4° C.). HUVECs were seeded at 2*10^6 cell per mL in the apical microchannel, and, then, left static overnight.
(§1) Cardiomyocytes are seeded at 2*10^6 cell per mL in the basal microchannel, followed by 3 hours to overnight inculcation, before connecting both channels 116, 117, 216, 217 to flow at 60 microliters (“μL”)/hr. Flow is controlled by a peristaltic pump (Ismatech) and connections re in Pharmed tubing (Cole-Parmer) having a 0.511 inner diameter. […] To challenge the endothelial barrier TNF (Sigma) is added at 2 μg/mL in the bottom microchannel 117, 217 during overnight flow. Isoproterenol (Sigma) 50 nanomolar (“nM”) is added to the endothelial microchannel for 30 minutes followed by MEA measurement.
TEER measurements are carried out by applying a 10 microamperes (“μA”) sinusoidal excitation signal in a four-electrode set-up in the frequency range 100 KHz-10 hertz (“Hz”). AC measurements are preferable for TEER measurements to avoid charging effects over the cell membranes and the electrodes. The four-electrode set-up, utilizing one opposing pair of electrodes for current excitation and another opposing pair of electrodes for voltage sensing, provides benefits of eliminating contact resistance associated with two electrode measurements.
TEER and capacitance values are derived using the equivalent circuit and model depicted in FIGS. 3A, 6A, and 6B. A resistor Rsol describes the solution conductivity, while the electric response of the endothelial layer is modeled using a resistor (RTEER) and a constant phase element (CPEt) in parallel to extract TEER of the cell-cell junctions, as well as the contribution of cell membrane capacitance and, indirectly, the overall monolayer surface area.

In another experiment the test system is hamster cardiomyocytes. As to conditions: TNF-α at 200 nanograms/ml^3; cited from earlier work.
The subject of experiment [2] is human induced pluripotent stem cell-derived cardiomyocytes (hiPSC-CMs, Cor.4U). Kind of experiment: MEA measurement of cardiac field potentials in the MEA-TEER Heart-on-Chip. As to conditions: isoproterenol 50 nM; basal beat rate 60 beats per minute; FIG. 5C. The class given is cell-based. An excerpt: HUVECs (Lonza) were expanded in EGM media (Lonza) and used at passages 2-6 in the chip experiments. Human induced pluripotent stem cell-derived cardiomyocytes hiPSC-CMs, Cor.4U, Axiogenesis) were handled according to the vendor's instructions and used a passage 1 after thawing. Briefly, cryopreserved cells were thawed on fibronectin-coated cell culture vessels in the presence of 5 […] puromycin to select for MYH6-positive cells. Three hours after thawing, the puromycin containing media was gently refreshed to wash out remaining cryopreservant (DMSO). Twenty-four hours after seeding, cell culture media was refreshed without puromycin. The following day, the cardiomyocytes were replated into the chips using 0.5% trypsin. […]
Spontaneous cardiac field potentials (“FPs”) are recorded from cardiomyocytes using Platinum and Platinum Black MEAs with the commercial Multi-Channel-System USB-MEA60-Inv-BC-System, Multi-Channel-Systems (MCS) GmbH. […] Cardiac FPs are recorded for 120 seconds for each measurement using Cardio2D software and are analyzed with Cardio2D+ (both from Multi Channel Systems). Measured parameters, including FP duration (FPD, milliseconds), peak-to-peak interval (PPI, seconds), beating rate (beats per minute), and conduction velocity (CV, centimer s_1) are exported into Microsoft Excel files for further analysis. […]

For experiment [3], the system named is endothelial layer (HUVECs). The class given is cell-based, human. As to conditions: adherens junction staining; FIGS. 4A-4C, 9A-9B, 10A-10C. The procedure: Cardiomyocytes are seeded at 2*10^6 cell per mL in the basal microchannel, followed by 3 hours to overnight inculcation, before connecting both channels 116, 117, 216, 217 to flow at 60 microliters (“μL”)/hr. Flow is controlled by a peristaltic pump ([…]) and connections re in […] tubing (Cole-Parmer) having a 0.511 inner diameter. […] To challenge the endothelial barrier TNF (Sigma) is added at 2 μg/mL in the bottom microchannel 117, 217 during overnight flow. Isoproterenol (Sigma) 50 nanomolar (“nM”) is added to the endothelial microchannel for 30 minutes followed by MEA measurement. Chips are rinsed in phosphate-buffered saline and fixated in 4% paraformaldehyde (Sigma) for 15 minutes at room temperature. ICC is carried out after permeabilization in phosphate-buffered saline with 0.05-0.1% Triton X-100 (Sigma) and blocking for 30 minutes in 3-5% Bovine Serum Albumin (Jackson ImmunoResearch, West Grove, Pa.) or 10% goat serum in phosphate-buffered saline with 0.05-0.1% Triton-X 100. Primary antibodies are applied in 2% goat serum or 0.5% BSA over-night at 4° C. or at RT The following primary antibodies are used for ICC experiments: mouse anti-vascular endothelial (VE)-cadherin (Abcam, 1:100), alpha-actinin (Abcam, 1:200) Cells are washed three times in phosphate-buffered saline with 0.05-0.1% Triton-X 100, followed by staining with secondary antibody staining for 30-60 min at RT. […]

The subject of experiment [4] is myocardial tissue (cardiomyocytes). The experiment can be described thus: Immunohistochemistry of myocardial tissue on the MEA platform (alpha-actinin). The experiment is classed as cell-based, human. As to conditions: isoproterenol treatment; FIGS. 4D-4E. On the procedure:
as §1
Chips are rinsed in phosphate-buffered saline and fixated in 4% paraformaldehyde (Sigma) for 15 minutes at room temperature. ICC is carried out after permeabilization in phosphate-buffered saline with 0.05-0.1% Triton X-100 (Sigma) and blocking for 30 minutes in 3-5% Bovine Serum Albumin (Jackson ImmunoResearch, West Grove, Pa.) or 10% goat serum in phosphate-buffered saline with 0.05-0.1% Triton-X 100. Primary antibodies are applied in 2% goat serum or 0.5% BSA over-night at 4° C. or at RT […]

The conditions of experiment [5]: 100 nM isoproterenol; mono-channel fluidic system; cited from earlier work.

Turning to TNF-α, the “effect on TEER values / endothelial barrier” value in experiment [1] is “TEER values decrease to the same values as ECM-coated chips without cells chip”. The “capacitance after the TNF-α challenge” value in experiment [1] (TNF-α 2 μg/mL, from 194±33 nF after stabilization at day 2) is recorded as 2968±52 nF. Besides, the “effect on TEER capacitance” value in experiment [1] (TNF-α addition, FIG. 5B) is listed as “increasing the capacitance significantly”. For the same molecule, the “TEER values after TNF-α challenge” value in experiment [1] (after 24 hours TNF-α 2 μg/mL, dropping from 230±45 Ω before challenge, p<0.01) is on record as 15±13 Ω. Also, the “contractility of hamster cardiomyocytes” value in the experiment on hamster cardiomyocytes is given as “reduce contractility”.
For `CC(C)NCC(O)c1ccc(O)c(O)c1` (stereo not shown) [isoproterenol], the “effect on TEER values / endothelial barrier” value in experiment [1] is listed as “does not affect the endothelial barrier”. Further, in experiment [2], the “increase in beat rate” value came to 60%. In addition, the “integrity of the endothelial barrier by ICC” value in experiment [3] is reported as “does not show any change in integrity of a barrier”. Besides, the “changes of cardiomyocytes by IHC versus control” value in experiment [4] was “do not show major changes”. The “change of beat rate” value in experiment [5] is listed as 60%.
